Test results reported in patent US20040180959A1, “Gabapentin analogues for fibromy algia and concomitant disorders” (priority 2002, published 2004).

What was measured:
Assay type in all cases: in vivo
Wistar rats = assay: Water-lick (Vogel) Conflict Test in rats; conditions: for Percent of Animals Tested With >20 Shock Episodes / Mean Shock Episodes (1 mA): pretreatment 120 minutes; for Mean Shock Episodes (1 mA): Mean ± SEM
Experimental: In each experiment, naive adult male Wistar rats between 170 to 200 g were randomly divided into groups (N=10-30/group) and deprived of water for 48 hours prior to testing. Food was available on Day 1 and removed 24 hours prior to test Day 2.
Apparatus: The modular operant test cage (Coulbourn Instruments) measures 10.25×12×12 in. The test chambers feature 3 modular bays on each side of the cage for a total of 6 bays. A module optical lickometer is mounted on one side of the chamber 5 cm above the grid floor. The lickometer is used to measure licking-drinking from a water bottle mounted outside the test chamber. A photo beam is piped via glass rods to the tip of the drink tube across a gap at the end of the tube. The animals tongue breaks the beam on each lick. The front and back of the test chamber is made of clear Plexiglas. The front door is covered to reduce distractions from inside the test room. The back of the test chamber is facing a wall, away from the flow of traffic within the testing room and remains uncovered to provide the opportunity for observations during testing. Shocks are delivered using a (Coulbourn) programmable universal shocker calibrated to deliver a 1 mA shock for 1 second through the drink tube.
Procedure: On Day 1, after a 24-hour water deprivation, experimental subjects were placed into the test chambers and allowed to drink unpunished. Drinking was limited to 500 responses or approximately 5 mL of water during a 10 minute session. Immediately following the unpunished drinking session, rats were returned to their home cages, deprived of water for an additional 24 hours and was food deprived. […] After the pretreatment period rats were placed into a test chamber and allowed to drink for 10 minutes. After every 10 licks, rats received a 1-second shock (1 mA) through the drink tube. Thus, a conflict or anxiety-producing situation exists. Rats are motivated to drink; however, they are inhibited by the shock. Anxiety is reflected by the low amounts of drinking. Standard anxiolytic drugs produce effects that allow rats to overcome this behavioral inhibition and drink despite the shock.
All data were analyzed using a Kruskal-Wallis one Way Analysis of Variance on Ranks and Mann-Whitney Rank Sum Tests.
Quantitative Analysis: A quantitative analysis represents the percentage of subjects within a treatment group that receives >20 shock episodes during a test session. This number provides a quantitative comparison regarding the distribution of the responses.
(§1) Compound A was dissolved in water and tested orally as a solution from 0.3 to 100 mg/kg in rats and 3 to 300 mg/kg in mice. Dosages are expressed as the active moiety and were administered in a volume of 1 mL/kg for rats and 10 mL/kg for mice.

mice = assay: Inverted Screen Test to assess coordination; conditions: doses up to 100 mg/kg PO, immediately following the TST, 1-minute trial
Experimental: Immediately following the TST, mice were also tested in the Inverted Screen Test to assess coordination. Animals were given a 1-minute trial in which they had to climb to the top of the inverted screen or to simply hang on and not fall off.

CD-1 mice = assay: Tail Suspension Test (TST) in mice; conditions: 2 hours after treatment
Experimental: The anxiolytic and antidepressant activity of (3S, 4S)-(1-Aminomethyl-3,4-dimethyl-cyclopentyl)-acetic acid (“Compound A”) was assessed using the Tail Suspension Test (TST) in mice, and in the Water-lick (Vogel) Conflict Test (WLC) in rats. The Vogel test is a recognized test procedure for assessing the potential anxiolytic utility. The TST procedure is a behavior despair paradigm used to assess potential antidepressant activity.
The method consisted of suspending mice by a piece of cellophane tape attached to the distal end of the tail for 6 minutes. Animals (CD-1 mice, weighing 22 to 27 g, from Charles River Labs) were tested. The test apparatus was the TST-2™ (ITEM-Labo, Le Kremmlin-Bicetre Cedex, France). Data were analyzed with analysis of variance (ANOVA) and Tukey's Multiple Range Test or Student's t-test.
as §1
The profile of typical […] activity in the TST consists of […]. Compound A and pregabalin were tested concurrently (PO) 2 hours after treatment. Compound A was administered at doses ranging from 3 to 100 mg/kg and pregabalin was tested from 3-300 mg/kg and served as positive control (Table 1). Compound A dose dependently increases immobility with the MED observed at the 3 mg/kg dosage and maximal effects were seen following the 30 mg/kg dose.

[1] = doses 3× and 10× the Vogel MED (10 and 30 mg/kg)
[2] = oral, 2 hour pretreatment, rats

Q: How did the “Percent of Animals Tested With >20 Shock Episodes” value (Wistar rats; 0.3 mg/kg PO) turn out when `C[C@H]1CC(CN)(CC(=O)O)C[C@@H]1C` [Compound A, (3S, 4S)-(1-Aminomethyl-3,4-dimethyl-cyclopentyl)-acetic acid] was run?
A: Its value is 20%.

Q: What about the “Mean Shock Episodes (1 mA)” value (Wistar rats; 0.3 mg/kg PO) of the same molecule?
A: The value was 16.5 ± 8.7.

Q: What about the “Percent of Animals Tested With >20 Shock Episodes” value (Wistar rats; 1 mg/kg PO) of the same molecule?
A: The value was 10%.

Q: And the “Mean Shock Episodes (1 mA)” value (Wistar rats; 1 mg/kg PO)?
A: Its value is 11.7 ± 4.2.

Q: And the “Percent of Animals Tested With >20 Shock Episodes” value (Wistar rats; 3 mg/kg PO)?
A: The value was 17%.

Q: And the “Mean Shock Episodes (1 mA)” value (Wistar rats; 3 mg/kg PO)?
A: Its value is 16.7 ± 4.3.

Q: What about the “Shock episodes (time-course)” value (Wistar rats; 3 mg/kg, 1 hr post treatment) of the same molecule?
A: Its value is 38.8 ± 12.2.

Q: What about the “Shock episodes (time-course)” value (Wistar rats; 3 mg/kg, 2 hr post treatment) of the same molecule?
A: The value was 55.7 ± 12.7.

Q: What about the “Shock episodes (time-course)” value (Wistar rats; 3 mg/kg, 4 hr post treatment) of the same molecule?
A: The value was 38.4 ± 12.2.

Q: What about the “Shock episodes (time-course)” value (Wistar rats; 3 mg/kg, 6 hr post treatment) of the same molecule?
A: Its value is 44.7 ± 13.3.

Q: And the “Shock episodes (time-course)” value (Wistar rats; 3 mg/kg, 8 hr post treatment)?
A: Its value is 7.7 ± 1.2.

Q: And the “Percent of Animals Tested With >20 Shock Episodes” value (Wistar rats; 10 mg/kg PO)?
A: The value was 43%.

Q: What about the “Mean Shock Episodes (1 mA)” value (Wistar rats; 10 mg/kg PO) of the same molecule?
A: Its value is 33.8 ± 6.2.

Q: What about the “Shock episodes (time-course)” value (Wistar rats; 10 mg/kg, 30 min. post treatment) of the same molecule?
A: The value was 14.1 ± 3.1.

Q: And the “Shock episodes (time-course)” value (Wistar rats; 10 mg/kg, 1 hr post treatment)?
A: The value was 28.2 ± 7.6.

Q: And the “Shock episodes (time-course)” value (Wistar rats; 10 mg/kg, 2 hr post treatment)?
A: Its value is 29.6 ± 8.0.

Q: What about the “Shock episodes (time-course)” value (Wistar rats; 10 mg/kg, 4 hr post treatment) of the same molecule?
A: Its value is 47.7 ± 11.7.

Q: And the “Shock episodes (time-course)” value (Wistar rats; 10 mg/kg, 6 hr post treatment)?
A: The value was 38.4 ± 13.2.

Q: And the “Percent of Animals Tested With >20 Shock Episodes” value (Wistar rats; 30 mg/kg PO)?
A: The value was 67%.

Q: And the “Mean Shock Episodes (1 mA)” value (Wistar rats; 30 mg/kg PO)?
A: The value was 46.3 ± 7.6.

Q: And the “Shock episodes (time-course)” value (Wistar rats; 30 mg/kg, 30 min. post treatment)?
A: The value was 35.8 ± 12.6.

Q: And the “Shock episodes (time-course)” value (Wistar rats; 30 mg/kg, 1 hr post treatment)?
A: Its value is 93.3 ± 12.1.

Q: And the “Shock episodes (time-course)” value (Wistar rats; 30 mg/kg, 2 hr post treatment)?
A: The value was 88.4 ± 7.4.

Q: What about the “Shock episodes (time-course)” value (Wistar rats; 30 mg/kg, 4 hr post treatment) of the same molecule?
A: The value was 73.5 ± 12.2.

Q: And the “Shock episodes (time-course)” value (Wistar rats; 30 mg/kg, 6 hr post treatment)?
A: The value was 97.4 ± 11.1.

Q: And the “Percent of Animals Tested With >20 Shock Episodes” value (Wistar rats; 100 mg/kg PO)?
A: The value was 90%.

Q: What about the “Mean Shock Episodes (1 mA)” value (Wistar rats; 100 mg/kg PO) of the same molecule?
A: The value was 52.8 ± 10.9.

Q: And the “Time of peak activity after treatment” value (Wistar rats; 10 and 30 mg/kg respectively)?
A: Its value is 4 to 6 h.

Q: What about the Activity maintained through (Wistar rats; MED dose 3 mg/kg) of the same molecule?
A: Its Activity maintained through is 6 h.

Q: What about the “Onset of activity after treatment” value (Wistar rats; MED dose 3 mg/kg) of the same molecule?
A: The value was 2 h.

Q: What about the “Time of peak activity” value (Wistar rats; MED dose 3 mg/kg) of the same molecule?
A: Its value is 2 h.

Q: What about the Activity maintained through (Wistar rats; [1]) of the same molecule?
A: The Activity maintained through was 6 h.

Q: And the “Onset of activity after treatment” value (Wistar rats; [1])?
A: The value was 1 h.

Q: And the “Dose of maximal anti-conflict effects” value (Wistar rats; [2])?
A: The value was 100 mg/kg.

Q: What about the “MED for anti-conflict activity” value (Wistar rats; [2]) of the same molecule?
A: The value was 3 mg/kg.

Q: What about the Screen fall-off (mice) of the same molecule?
A: The Screen fall-off was “did not cause animals to fall off”.

Q: What about the “Immobility, % Percent of control” value (CD-1 mice; 3 mg/kg PO) of the same molecule?
A: The value was 126.8 ± 7.0 %.

Q: What about the “Power of Movement, % Percent of control” value (CD-1 mice; 3 mg/kg PO) of the same molecule?
A: Its value is 70.7 ± 10.3%.

Q: And the “Immobility, % Percent of control” value (CD-1 mice; 10 mg/kg PO)?
A: The value was 143.7 ± 11.0 %.

Q: What about the “Power of Movement, % Percent of control” value (CD-1 mice; 10 mg/kg PO) of the same molecule?
A: Its value is 60.8 ± 11.4%.

Q: What about the “Immobility, % Percent of control” value (CD-1 mice; 30 mg/kg PO) of the same molecule?
A: The value was 185.9 ± 7.0 %.

Q: What about the “Power of Movement, % Percent of control” value (CD-1 mice; 30 mg/kg PO) of the same molecule?
A: Its value is 46.4 ± 12.3 %.

Q: What about the “Immobility, % Percent of control” value (CD-1 mice; 100 mg/kg PO) of the same molecule?
A: The value was 182.4 ± 5.9 %.

Q: And the “Power of Movement, % Percent of control” value (CD-1 mice; 100 mg/kg PO)?
A: The value was 50.5 ± 18.3 %.

Q: What about the “Dose of maximal effects on immobility” value (CD-1 mice; PO) of the same molecule?
A: Its value is 30 mg/kg.

Q: And the “MED for increasing immobility” value (CD-1 mice; PO)?
A: The value was 3 mg/kg.

Q: And the “Power of movement parameter (effect in words)” value (CD-1 mice; PO)?
A: The value was “decreased at the 30 and 100 mg/kg dosages”.
